PubChem BioAssay AID1963972 (Molecular Pharmacology Branch, DTP, NCI, 2024)

Test system: 945468-187-T-J2-PDC spheroids viability
Assay: Anticancer human tumor 945468-187-T-J2-PDC patient-derived rectal carcinoma cell line growth inhibition [PI3K]
Conditions: spheroids with HUVEC and MSC; for IC50: curve of first compound; for viability, T/C: stronger effect = lower value
Procedure, shortened: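 Spheroid viability read-out. Co-cultures contained the tumor line plus HUVEC and human MSCs. Each agent was paired with a PI3K inhibitor (inavolisib, alpelisib, duvelisib, copanlisib) across half-log dilutions starting at clinical Cmax, or at 10 microM when Cmax was unknown.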

[1] = second compound 0.00316 µM, first compound 0.0316 µM
[2] = second compound 0.00316 µM, first compound 0.1 µM
[3] = second compound 0.00316 µM, first compound 0.316 µM
[4] = second compound 0.00316 µM, first compound 1 µM
[5] = second compound 0.00316 µM, first compound 3.16 µM
[6] = second compound 0.00316 µM, first compound 10 µM
[7] = second compound 0.01 µM, first compound 0.0316 µM
[8] = second compound 0.01 µM, first compound 0.1 µM
[9] = second compound 0.01 µM, first compound 0.316 µM
[10] = second compound 0.01 µM, first compound 1 µM
[11] = second compound 0.01 µM, first compound 3.16 µM
[12] = second compound 0.01 µM, first compound 10 µM
[13] = second compound 0.0316 µM, first compound 0.0316 µM
[14] = second compound 0.0316 µM, first compound 0.1 µM
[15] = second compound 0.0316 µM, first compound 0.316 µM
[16] = second compound 0.0316 µM, first compound 1 µM
[17] = second compound 0.0316 µM, first compound 3.16 µM
[18] = second compound 0.0316 µM, first compound 10 µM
[19] = second compound 0.1 µM, first compound 0.0316 µM
[20] = second compound 0.1 µM, first compound 0.1 µM
[21] = second compound 0.1 µM, first compound 0.316 µM
[22] = second compound 0.1 µM, first compound 1 µM
[23] = second compound 0.1 µM, first compound 3.16 µM
[24] = second compound 0.1 µM, first compound 10 µM
[25] = second compound 0.316 µM, first compound 0.0316 µM
[26] = second compound 0.316 µM, first compound 0.1 µM
[27] = second compound 0.316 µM, first compound 0.316 µM
[28] = second compound 0.316 µM, first compound 1 µM
[29] = second compound 0.316 µM, first compound 3.16 µM
[30] = second compound 0.316 µM, first compound 10 µM
[31] = second compound 1 µM, first compound 0.0316 µM
[32] = second compound 1 µM, first compound 0.1 µM
[33] = second compound 1 µM, first compound 0.316 µM
[34] = second compound 1 µM, first compound 1 µM
[35] = second compound 1 µM, first compound 3.16 µM
[36] = second compound 1 µM, first compound 10 µM
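Further: spheroids exposed to compounds for seven days before reading.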

## Cn1ncc(Cl)c1-c1cc(C(=O)NC(CN)Cc2cccc(F)c2)sc1Cl (stereo unspecified) + CC(Nc1ccc2c(c1)OCCn1cc(N3C(=O)OCC3C(F)F)nc1-2)C(N)=O
Second compound 0.00316 µM
  IC50: > 10 µM
Second compound 0.01 µM
  IC50: > 10 µM
Second compound 0.0316 µM
  IC50: > 10 µM
Second compound 0.1 µM
  IC50: > 10 µM
Second compound 0.316 µM
  IC50: > 10 µM
Second compound 1 µM
  IC50: > 10 µM
[1]
  viability, T/C: 82%
[2]
  viability, T/C: 76.6%
[3]
  viability, T/C: 66.5%
[4]
  viability, T/C: 70%
[5]
  viability, T/C: 58.5%
[6]
  viability, T/C: 73.8%
[7]
  viability, T/C: 80.1%
[8]
  viability, T/C: 75.4%
[9]
  viability, T/C: 95.7%
[10]
  viability, T/C: 75.8%
[11]
  viability, T/C: 66.7%
[12]
  viability, T/C: 95.7%
[13]
  viability, T/C: 99.8%
[14]
  viability, T/C: 88.3%
[15]
  viability, T/C: 95.9%
[16]
  viability, T/C: 71.6%
[17]
  viability, T/C: 62.3%
[18]
  viability, T/C: 96%
[19]
  viability, T/C: 93.2%
[20]
  viability, T/C: 86.1%
[21]
  viability, T/C: 78.4%
[22]
  viability, T/C: 71.8%
[23]
  viability, T/C: 62.2%
[24]
  viability, T/C: 81.5%
[25]
  viability, T/C: 70.6%
[26]
  viability, T/C: 79.5%
[27]
  viability, T/C: 77.1%
[28]
  viability, T/C: 83.9%
[29]
  viability, T/C: 63.6%
[30]
  viability, T/C: 65.4%
[31]
  viability, T/C: 70.3%
[32]
  viability, T/C: 56.6%
[33]
  viability, T/C: 68.5%
[34]
  viability, T/C: 74%
[35]
  viability, T/C: 39.6%
[36]
  viability, T/C: 66.4%

## CC(C)n1nc(-c2ccc3oc(N)nc3c2)c2c(N)ncnc21 + Cc1nc(NC(=O)N2CCCC2C(N)=O)sc1-c1ccnc(C(C)(C)C(F)(F)F)c1
Second compound 0.0316 µM
  IC50: > 0.1 µM
Second compound 0.1 µM
  IC50: > 0.1 µM
Second compound 0.316 µM
  IC50: > 0.1 µM
Second compound 1 µM
  IC50: > 0.1 µM
Second compound 3.16 µM
  IC50: 0.0583 µM
Second compound 10 µM
  IC50: 0.0213 µM
Second compound 0.0316 µM, first compound 0.000316 µM
  viability, T/C: 91.4%
Second compound 0.0316 µM, first compound 0.001 µM
  viability, T/C: 109%
Second compound 0.0316 µM, first compound 0.00316 µM
  viability, T/C: 69.1%
Second compound 0.0316 µM, first compound 0.01 µM
  viability, T/C: 83.5%
[13]
  viability, T/C: 77.9%
[14]
  viability, T/C: 71.2%
Second compound 0.1 µM, first compound 0.000316 µM
  viability, T/C: 103%
Second compound 0.1 µM, first compound 0.001 µM
  viability, T/C: 77.7%
Second compound 0.1 µM, first compound 0.00316 µM
  viability, T/C: 88.6%
Second compound 0.1 µM, first compound 0.01 µM
  viability, T/C: 81.4%
[19]
  viability, T/C: 84.9%
[20]
  viability, T/C: 55.6%
Second compound 0.316 µM, first compound 0.000316 µM
  viability, T/C: 65.9%
Second compound 0.316 µM, first compound 0.001 µM
  viability, T/C: 68.2%
Second compound 0.316 µM, first compound 0.00316 µM
  viability, T/C: 80.4%
Second compound 0.316 µM, first compound 0.01 µM
  viability, T/C: 81.5%
[25]
  viability, T/C: 75.3%
[26]
  viability, T/C: 68.8%
Second compound 1 µM, first compound 0.000316 µM
  viability, T/C: 70.3%
Second compound 1 µM, first compound 0.001 µM
  viability, T/C: 80.6%
Second compound 1 µM, first compound 0.00316 µM
  viability, T/C: 73.2%
Second compound 1 µM, first compound 0.01 µM
  viability, T/C: 91.5%
[31]
  viability, T/C: 75.3%
[32]
  viability, T/C: 57.9%
Second compound 3.16 µM, first compound 0.000316 µM
  viability, T/C: 77%
Second compound 3.16 µM, first compound 0.001 µM
  viability, T/C: 68.9%
Second compound 3.16 µM, first compound 0.00316 µM
  viability, T/C: 75.2%
Second compound 3.16 µM, first compound 0.01 µM
  viability, T/C: 78.1%
Second compound 3.16 µM, first compound 0.0316 µM
  viability, T/C: 64%
Second compound 3.16 µM, first compound 0.1 µM
  viability, T/C: 37.6%
Second compound 10 µM, first compound 0.000316 µM
  viability, T/C: 77.5%
Second compound 10 µM, first compound 0.001 µM
  viability, T/C: 62.4%
Second compound 10 µM, first compound 0.00316 µM
  viability, T/C: 66.9%
Second compound 10 µM, first compound 0.01 µM
  viability, T/C: 58.7%
Second compound 10 µM, first compound 0.0316 µM
  viability, T/C: 46.5%
Second compound 10 µM, first compound 0.1 µM
  viability, T/C: 27.2%

## CC(Cn1ccc(-c2ccc(C#N)c(Cl)c2)n1)NC(=O)c1cc(C(C)O)[nH]n1 (stereo unspecified) + CC(Nc1ccc2c(c1)OCCn1cc(N3C(=O)OCC3C(F)F)nc1-2)C(N)=O
Second compound 0.00316 µM
  IC50: > 10 µM
Second compound 0.01 µM
  IC50: > 10 µM
Second compound 0.0316 µM
  IC50: > 10 µM
Second compound 0.1 µM
  IC50: > 10 µM
Second compound 0.316 µM
  IC50: > 10 µM
Second compound 1 µM
  IC50: > 10 µM
[1]
  viability, T/C: 98.9%
[2]
  viability, T/C: 105%
[3]
  viability, T/C: 107%
[4]
  viability, T/C: 75.7%
[5]
  viability, T/C: 106%
[6]
  viability, T/C: 110%
[7]
  viability, T/C: 108%
[8]
  viability, T/C: 85.8%
[9]
  viability, T/C: 90.5%
[10]
  viability, T/C: 96.2%
[11]
  viability, T/C: 111%
[12]
  viability, T/C: 93.6%
[13]
  viability, T/C: 100%
[14]
  viability, T/C: 82%
[15]
  viability, T/C: 88%
[16]
  viability, T/C: 92%
[17]
  viability, T/C: 91.1%
[18]
  viability, T/C: 103%
[19]
  viability, T/C: 86.2%
[20]
  viability, T/C: 82%
[21]
  viability, T/C: 99.1%
[22]
  viability, T/C: 80.8%
[23]
  viability, T/C: 101%
[24]
  viability, T/C: 81.7%
[25]
  viability, T/C: 85.2%
[26]
  viability, T/C: 73.2%
[27]
  viability, T/C: 95.2%
[28]
  viability, T/C: 91.4%
[29]
  viability, T/C: 82.7%
[30]
  viability, T/C: 82.8%
[31]
  viability, T/C: 76.2%
[32]
  viability, T/C: 74.8%
[33]
  viability, T/C: 68.9%
[34]
  viability, T/C: 63.6%
[35]
  viability, T/C: 72.3%
[36]
  viability, T/C: 71.4%
